Measured values from patent publication US20210379204A1, “METHOD FOR CALCULATING TOLERANCE DOSE OF HUMAN BODY TO SUGAR ALCOHOL AND FUNCTIONAL SUGAR” (Zhejiang Huakang Pharmaceutical Co., Ltd., priority 2018, published 2021).

How the values were obtained:
[1] = tolerated dose of a 70 kg human body converted from the rat maximum tolerated dose (K = 56.0); details: rat dose N x conversion factor 56.0
From the text: wherein K is a conversion factor between a 70 kg human body and a 200 g rat, which is 56.0; the maximum tolerated dose N of the rat to xylitol and the tolerated dose R of the human body to the xylitol are both in the unit of g/d; or,
wherein K is a conversion factor between a 70 kg human body and a 200 g rat, which is 56.0. The maximum tolerated dose N of the rat to xylitol and the tolerated dose R of the human body to the xylitol are both in the unit of g/d; or,
In the specific implementation, the maximum tolerated dose of the human body to a certain sugar alcohol or functional sugar recorded in the existing data is used as a reference value firstly. Taking xylitol as an example, the existing companies have declared that the daily intake of xylitol should not exceed 50 g. 50 g of xylitol is set as the reference value, and fluctuation is performed based on the reference value to obtain an estimated value of the experimental range. […] The experiment is continued for 14 days. Considering the experimental results and verification results comprehensively, the maximum tolerated dose N of 200 g rats to xylitol is obtained.

[2] = 200 g rats, gavage each day, 14 days; maximum dose group in which no rat has diarrhea on day 14
From the text: at step 2, continuing the step 1 for 14 days;
At step 1, 200 g rats are selected as experimental animal objects, and the 200 g rats are divided into six experimental groups and one control group, with each group including ten numbered rats; and the rats in the six experimental groups (namely, dose (1) experimental group, dose (2) experimental group, dose (3) experimental group, dose (4) experimental group, dose (5) experimental group and dose (6) experimental group) are gavaged with different doses of xylitol each day. The ten rats in each group are gavaged with the same dose.
At step 2, the step 1 is continued for 14 days.
Specifically, 50 g of xylitol was set as the reference value, and estimated values of the experimental range of the human body to xylitol were set to 20 g/d, 30 g/d, 40 g/d, 50 g/d, 60 g/d and 70 g/d (six groups in total) according to the reference value. According to the conversion formula of drug doses of experimental animal and human body, the daily experimental dose of xylitol of 200 g rats was respectively obtained as 0.36 g/d, 0.54 g/d, 0.71 g/d, 0.89 g/d, 1.07 g/d and 1.25 g/d (six groups in total), and then experiments were performed respectively.
Similarly, estimated values of the human body to L-arabinose were respectively set to 70 g/d, 80 g/d, 90 g/d, 100 g/d, 110 g/d and 120 g/d (six groups in total) as the experimental range. According to the conversion formula of drug doses of experimental animal and human body, the daily experimental dose of L-arabinose of 200 g rats was respectively obtained as 1.25 g/d, 1.43 g/d, 1.61 g/d, 1.79 g/d, 1.96 g/d and 2.14 g/d (six groups in total), and then experiments were performed respectively.
Similarly, estimated values of the human body to sorbitol were respectively set to 5 g/d, 10 g/d, 15 g/d, 20 g/d, 25 g/d and 30 g/d (six groups in total) as the experimental range. […]

[3] = human daily intake, declared by some companies, no experimental data; cited from earlier work

## OC[C@@H](O)[C@@H](O)[C@H](O)[C@@H](O)CO [sorbitol]
[1]
  maximum tolerated dose R of the human body: 20 g/day
[2]
  maximum tolerated dose N of 200 g rat: 0.36 g/day

## OC[C@@H](O)[C@H](O)[C@@H](O)CO [xylitol]
[1]
  maximum tolerated dose R of the human body: 40 g/day
[2]
  maximum tolerated dose N of 200 g rat: 0.71 g/day

## O=C[C@H](O)[C@@H](O)[C@@H](O)CO [L-arabinose]
[1]
  maximum tolerated dose R of the human body: 90 g/day
[2]
  maximum tolerated dose N of 200 g rat: 1.61 g/day
[3]
  daily intake should not exceed: ≤ 120 g
